Experimental data: US20200286590A1, “SYSTEMS, APPARATUS, AND METHODS FOR GENERATING AND ANALYZING RESISTOME PROFILES” (priority 2014, published 2020)
Values after ≈ are worked out from the molar mass of the structure shown. Read-outs that look alike come from different tables or passages of the source.

Key:
[1] = test system: K. pneumoniae isolate 850707; assay: Minimum inhibitory concentration (MIC) results, isolate 850707; type: cell-based; conditions: for MIC: Klebsiella pneumoniae, read-out: MIC Value
Source text: (§1) The ability to view additional or varied information may be set by a user as a preference on a customized basis, or the information may be hidden and made available based on a request or selection from a user according to some embodiments. For example, a display interface may be configured such that the user can make a selection on a short form name or symbol to expand a field or open a new window on the display that provides detailed antibiotic resistance data or other diagnostically useful information for a subject sample. For example, in TABLE 17, the differences in minimum inhibitory concentration (MIC) results for two isolate species are provided.
(§2) In TABLE 18, the isolates are numbered and linked to an isolate species (K. pneumoniae); resistome profiles including the species (K1), phenotype (CRE), genotype (IMP and C1), and profile uniqueness identifiers indicating sequential unique patterns compared to an associated database (1-1 and 2-1, respectively); Acuitas MDRO Gene Test results (IMP(A) and CTX-M(A)); and reported genotypes listed in rank order of clinical importance (IMP-26, CTX-M-15, and SHV-28(u), and IMP-4, CTX-M-15, SHV-1(b), and TEM, respectively). The trailing “1s” in the assigned resistome profiles (i.e., the second digit of each profile uniqueness identifier) reflect the first occurrences of these patterns/profiles derived based on data collected from subject sample measurements. In this example, the tests are not designed to detect SHV, TEM, ACT/MIR, CMY-2, DHA-1, ACT-16, or VEB-1.

[2] = test system: K. pneumoniae isolate 850793; assay: Minimum inhibitory concentration (MIC) results, isolate 850793; type: cell-based; conditions: for MIC: Klebsiella pneumoniae, read-out: MIC Value
Source text: as §1, §2

[3] = test system: cephalosporin-resistant (3rd or 4th generation) Gram-negative bacillus; conditions: CephR-GNB; Revised (M100-S20); cited from earlier work
[4] = test system: carbapenem-resistant Enterobacteriaceae; conditions: CRE, cited from earlier work
[5] = test system: D-alanyl-D-serine variation of NAM/NAG-peptide subunits; conditions: D-alanyl-D-serine versus D-alanyl-D-alanine; cited from earlier work
[6] = test system: D-alanyl-D-lactate variation of NAM/NAG-peptide subunits; conditions: D-alanyl-D-lactate versus D-alanyl-D-alanine; cited from earlier work
[7] = Isolate No. 850707, K. pneumoniae, IMP-26, CTX-M-15, SHV-28(u)
[8] = Isolate No. 850793, K. pneumoniae, IMP-4, CTX-M-15, SHV-1(b), TEM

For `NCC[C@H](O)C(=O)N[C@@H]1C[C@H](N)[C@@H](O[C@H]2O[C@H](CN)[C@@H](O)[C@H](O)[C@H]2O)[C@H](O)[C@H]1O[C@H]1O[C@H](CO)[C@@H](O)[C@H](N)[C@H]1O` [Amikacin], which MIC [1, 7] is on record?
Its MIC is 32 µg/mL (≈ 54.6 µM).

And the MIC [2, 8]?
Its MIC is 32 µg/mL (≈ 54.6 µM).

Which results are given for `CC1(C)S[C@@H]2[C@H](NC(=O)[C@H](N)c3ccccc3)C(=O)N2[C@H]1C(=O)O` [Ampicillin]?
MIC [1, 7]: 32 µg/mL (≈ 91.6 µM); MIC [2, 8]: 32 µg/mL (≈ 91.6 µM)

With `CO/N=C(\C(=O)N[C@@H]1C(=O)N2C(C(=O)[O-])=C(C[N+]3(C)CCCC3)CS[C@H]12)c1csc(N)n1` [Cefepime] as the molecule, how does the MIC [1, 7] read?
The MIC was 16 µg/mL (≈ 33.3 µM).

What about the MIC [2, 8] of the same molecule?
Its MIC is 16 µg/mL (≈ 33.3 µM).

And the “MIC breakpoint, Intermediate” value [3]?
The value was 16 µg/mL (≈ 33.3 µM).

And the “MIC breakpoint, Resistant” value [3]?
Its value is at least 32 µg/mL.

And the “MIC breakpoint, Susceptible” value [3]?
The value was at most 8 µg/mL.

What does the source list for `CO/N=C(\C(=O)N[C@@H]1C(=O)N2C(C(=O)O)=C(COC(C)=O)CS[C@H]12)c1csc(N)n1` [Cefotaxime]?
MIC breakpoint, Intermediate ([4]; Revised (M100-S20)): 2 µg/mL (≈ 4.39 µM); MIC breakpoint, Resistant ([4]; Revised (M100-S20)): ≥4 µg/mL; MIC breakpoint, Susceptible ([4]; Revised (M100-S20)): ≤1 µg/mL

Which results are given for `CC(C)(O/N=C(\C(=O)N[C@@H]1C(=O)N2C(C(=O)[O-])=C(C[n+]3ccccc3)CS[C@H]12)c1csc(N)n1)C(=O)O` [Ceftazidime]?
MIC [1, 7]: 16 µg/mL (≈ 29.3 µM); MIC breakpoint, Intermediate ([4]; Revised (M100-S20)): 8 µg/mL (≈ 14.6 µM); MIC breakpoint, Resistant ([4]; Revised (M100-S20)): ≥16 µg/mL; MIC breakpoint, Susceptible ([4]; Revised (M100-S20)): ≤4 µg/mL; MIC [2, 8]: 128 µg/mL (≈ 234 µM); MIC breakpoint, Intermediate [3]: 8 µg/mL (≈ 14.6 µM); MIC breakpoint, Resistant [3]: ≥16 µg/mL; MIC breakpoint, Susceptible [3]: ≤4 µg/mL

For `CO/N=C(\C(=O)N[C@@H]1C(=O)N2C(C(=O)O)=C(CSc3nc(=O)c(=O)[nH]n3C)CS[C@H]12)c1csc(N)n1` [Ceftriaxone], which “MIC breakpoint, Intermediate” value ([4]; Revised (M100-S20)) is on record?
Its value is 2 µg/mL (≈ 3.61 µM).

What about the “MIC breakpoint, Resistant” value ([4]; Revised (M100-S20)) of the same molecule?
Its value is at least 4 µg/mL.

And the “MIC breakpoint, Susceptible” value ([4]; Revised (M100-S20))?
The value was at most 1 µg/mL.

Which results are given for `C[C@@H](O)[C@H]1C(=O)N2C(C(=O)O)=C(S[C@@H]3CN[C@H](CNS(N)(=O)=O)C3)[C@H](C)[C@H]12` [Doripenem]?
MIC [1, 7]: 32 µg/mL (≈ 76.1 µM); MIC breakpoint, Intermediate ([4]; Current Breakpoints (M100-S22)): 2 µg/mL (≈ 4.76 µM); MIC breakpoint, Resistant ([4]; Current Breakpoints (M100-S22)): ≥4 µg/mL; MIC breakpoint, Susceptible ([4]; Current Breakpoints (M100-S22)): ≤1 µg/mL; MIC [2, 8]: 4 µg/mL (≈ 9.51 µM)

Which MIC [1, 7] does the source give for `C[C@@H](O)[C@H]1C(=O)N2C(C(=O)O)=C(S[C@@H]3CN[C@H](C(=O)Nc4cccc(C(=O)O)c4)C3)[C@H](C)[C@H]12` [Ertapenem] here?
Its MIC is 6 µg/mL (≈ 12.6 µM).

What about the “MIC breakpoint, Intermediate” value ([4]; Current Breakpoints (M100-S22)) of the same molecule?
Its value is 1 µg/mL (≈ 2.1 µM).

And the “MIC breakpoint, Resistant” value ([4]; Current Breakpoints (M100-S22))?
The value was at least 2 µg/mL.

What about the “MIC breakpoint, Susceptible” value ([4]; Current Breakpoints (M100-S22)) of the same molecule?
The value was at most 0.5 µg/mL.

And the MIC [2, 8]?
The MIC was 1 µg/mL (≈ 2.1 µM).

What does the source list for `C[C@@H](O)[C@H]1C(=O)N2C(C(=O)O)=C(SCCN=CN)C[C@H]12` [Imipenem]?
MIC [1, 7]: 2 µg/mL (≈ 6.68 µM); MIC [2, 8]: 8 µg/mL (≈ 26.7 µM)

Which results are given for `C[C@H]1COc2c(N3CCN(C)CC3)c(F)cc3c(=O)c(C(=O)O)cn1c23` [Levofloxacin]?
MIC [1, 7]: 1 µg/mL (≈ 2.77 µM); MIC [2, 8]: 0.5 µg/mL (≈ 1.38 µM)

What does the source list for `C[C@@H](O)[C@H]1C(=O)N2C(C(=O)O)=C(S[C@@H]3CN[C@H](C(=O)N(C)C)C3)[C@H](C)[C@H]12` [Meropenem]?
MIC [1, 7]: 32 µg/mL (≈ 83.4 µM); MIC breakpoint, Intermediate ([4]; Current Breakpoints (M100-S22)): 2 µg/mL (≈ 5.22 µM); MIC breakpoint, Resistant ([4]; Current Breakpoints (M100-S22)): ≥4 µg/mL; MIC breakpoint, Susceptible ([4]; Current Breakpoints (M100-S22)): ≤1 µg/mL; MIC [2, 8]: 8 µg/mL (≈ 20.9 µM)

Which MIC [1] does the source give for `CN(C)c1cc(NC(=O)CNC(C)(C)C)c(O)c2c1C[C@H]1C[C@H]3[C@H](N(C)C)C(O)=C(C(N)=O)C(=O)[C@@]3(O)C(O)=C1C2=O` [Tigecycline] here?
The MIC was 2 µg/mL (≈ 3.41 µM).

And the MIC [2]?
The MIC was 1 µg/mL (≈ 1.71 µM).

Which “loss of affinity between vancomycin and the peptide” value [5] does the source give for `CN[C@H](CC(C)C)C(=O)N[C@H]1C(=O)N[C@@H](CC(N)=O)C(=O)N[C@H]2C(=O)N[C@H]3C(=O)N[C@H](C(=O)N[C@H](C(=O)O)c4cc(O)cc(O)c4-c4cc3ccc4O)[C@H](O)c3ccc(c(Cl)c3)Oc3cc2cc(c3O[C@@H]2O[C@H](CO)[C@@H](O)[C@H](O)[C@H]2O[C@H]2C[C@](C)(N)[C@H](O)[C@H](C)O2)Oc2ccc(cc2Cl)[C@H]1O` [vancomycin] here?
Its value is “six-fold”.

What about the decrease in affinity [6] of the same molecule?
The decrease in affinity was 1000 fold.

With Colistin/TWEEN as the molecule, how does the “MIC Value” [1, 7] read?
Its value is 0.12 µg/mL.

And the “MIC Value” [2, 8]?
The value was 0.12 µg/mL.
